PubChem BioAssay AID1918955 (Molecular Pharmacology Branch, DTP, NCI, 2023)

Test system: NCI/ADR-RES complex spheroid viability
Test: Anticancer human tumor NCI/ADR-RES cell line growth inhibition;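 for viability, T/C: 100% = DMSO vehicle treated spheroids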
Conditions: for IC50: curve of first compound; for viability, T/C: stronger effect = lower value
Method in brief: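 Complex spheroids of tumor cells with HUVEC and human MSCs, exposed to iadademstat combined with other agents. Each agent tested in half-log steps from near clinical Cmax (else 10 microM top), DMSO ≤0.25%.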

[1] = second compound 0.1 µM, first compound 0.000316 µM
[2] = second compound 0.1 µM, first compound 0.001 µM
[3] = second compound 0.1 µM, first compound 0.00316 µM
[4] = second compound 0.1 µM, first compound 0.01 µM
[5] = second compound 0.1 µM, first compound 0.0316 µM
[6] = second compound 0.1 µM, first compound 0.1 µM
[7] = second compound 0.316 µM, first compound 0.000316 µM
[8] = second compound 0.316 µM, first compound 0.001 µM
[9] = second compound 0.316 µM, first compound 0.00316 µM
[10] = second compound 0.316 µM, first compound 0.01 µM
[11] = second compound 0.316 µM, first compound 0.0316 µM
[12] = second compound 0.316 µM, first compound 0.1 µM
[13] = second compound 1 µM, first compound 0.000316 µM
[14] = second compound 1 µM, first compound 0.001 µM
[15] = second compound 1 µM, first compound 0.00316 µM
[16] = second compound 1 µM, first compound 0.01 µM
[17] = second compound 1 µM, first compound 0.0316 µM
[18] = second compound 1 µM, first compound 0.1 µM
[19] = second compound 3.16 µM, first compound 0.000316 µM
[20] = second compound 3.16 µM, first compound 0.001 µM
[21] = second compound 3.16 µM, first compound 0.00316 µM
[22] = second compound 3.16 µM, first compound 0.01 µM
[23] = second compound 3.16 µM, first compound 0.0316 µM
[24] = second compound 3.16 µM, first compound 0.1 µM
[25] = second compound 10 µM, first compound 0.000316 µM
[26] = second compound 10 µM, first compound 0.001 µM
[27] = second compound 10 µM, first compound 0.00316 µM
[28] = second compound 10 µM, first compound 0.01 µM
[29] = second compound 10 µM, first compound 0.0316 µM
[30] = second compound 10 µM, first compound 0.1 µM

SMILES | IC50 (second compound 0.1 µM) [nM] | IC50 (second compound 0.316 µM) [nM] | IC50 (second compound 1 µM) [nM] | IC50 (second compound 3.16 µM) [nM] | IC50 (second compound 10 µM) [nM] | viability, T/C [1] [%] | viability, T/C [2] [%] | viability, T/C [3] [%] | viability, T/C [4] [%] | viability, T/C [5] [%] | viability, T/C [6] [%] | viability, T/C [7] [%] | viability, T/C [8] [%] | viability, T/C [9] [%] | viability, T/C [10] [%] | viability, T/C [11] [%] | viability, T/C [12] [%] | viability, T/C [13] [%] | viability, T/C [14] [%] | viability, T/C [15] [%] | other results
CC(C)CC(NC(=O)C(Cc1ccccc1)NC(=O)c1cnccn1)B(O)O (stereo not given) + NC1CC1c1ccc(-c2cccc(O)c2)cc1 | 12.2 | 12.7 | 14.2 | 12.2 | 11.8 | 110 | 102 | 92.2 | 61 | 6.87 | 0.38 | 103 | 103 | 94.6 | 61.7 | 6.88 | 0.32 | 106 | 99.4 | 93.5 | viability, T/C [16]: 69%; viability, T/C [17]: 7.3%; viability, T/C [18]: 0.37%; viability, T/C [19]: 97.6%; viability, T/C [20]: 98.8%; viability, T/C [21]: 87%; viability, T/C [22]: 58.2%; viability, T/C [23]: 14.1%; viability, T/C [24]: 0.23%; viability, T/C [25]: 90.5%; viability, T/C [26]: 88.8%; viability, T/C [27]: 75.4%; viability, T/C [28]: 59.6%; viability, T/C [29]: 8.55%; viability, T/C [30]: 0.36%
CC(C)CC(NC(=O)CNC(=O)c1cc(Cl)ccc1Cl)B1OC(=O)CC(CC(=O)O)(C(=O)O)O1 (stereo not given) + NC1CC1c1ccc(-c2cccc(O)c2)cc1 | 23.6 | 23.8 | 25.9 | 19.5 | 17.7 | 101 | 108 | 97.9 | 84.5 | 38.3 | 2.37 | 109 | 104 | 102 | 81.3 | 39.8 | 2.3 | 97.3 | 93.8 | 96.2 | viability, T/C [16]: 81.3%; viability, T/C [17]: 43.4%; viability, T/C [18]: 3.84%; viability, T/C [19]: 101%; viability, T/C [20]: 94.7%; viability, T/C [21]: 88.9%; viability, T/C [22]: 80.4%; viability, T/C [23]: 28.5%; viability, T/C [24]: 4.76%; viability, T/C [25]: 90.3%; viability, T/C [26]: 88.9%; viability, T/C [27]: 81%; viability, T/C [28]: 64.9%; viability, T/C [29]: 34.9%; viability, T/C [30]: 2.76%
